Converted amounts (≈) assume the structure as drawn. “Also recorded” adds a separate entry of the source.
How the values were obtained:
[1] = tested on: L1210 lymphatic leukemia cells; assay: cells; assay type: cell-based, murine; settings: Mus musculus, L1210, 72 h, read-out: ED50
[2] = background; cited from earlier work
[3] = tested on: mononuclear cells from normal bone marrow (GM-CFC)
KBM-3/DOX = assay: cells; assay type: cell-based, human; settings: Homo sapiens
KBM-3 = assay: Clonogenic assay, drug in agar, prolonged exposure (Table 8, FIG. 11); assay type: cell-based; settings: Homo sapiens, drug added to agar plates
[4] = tested on: human myeloid cell line KBM-3; assay: cells
[5] = tested on: human myeloid cell line KBM-3
KBM-3/AMSA = assay: cells; assay type: cell-based, human; settings: Homo sapiens
[6] = tested on: GM-CFC from normal human bone marrow
[7] = tested on: mononuclear cells from normal bone marrow (GM-CFC); assay: cells; settings: Homo sapiens, 1 h
in vitro = settings: human, bone marrow gm-cfc
HL-60/AMSA = assay: cells; assay type: cell-based; settings: Homo sapiens
[8] = tested on: GM-CFC from normal human bone marrow; assay: Long-term suspension culture: GM-CFC regrowth on autologous irradiated adherent cell layers (Table 9); assay type: cell-based; settings: for GM-CFC × 10^-3 per adherent cell layer: end of culture period; for GM-CFC × 10^-3 per adherent cell layer / GM-CFC × 10^-3 per culture: average ± S.D.
Procedure: (§1) A modification of previously reported techniques was used (Gartner and Kaplan, 1980; Greenberg et al., 1981; Potter et al., 1981; Coulombel et al., 1983). Briefly, 1×10^7 mononuclear bone marrow cells were suspended in 10 ml IMDM supplemented with 12.5% horse serum, 12.5% FCS and 5×10^-6 M hydrocortisone succinate (HyC) (Abbott Laboratories, N. Chicago, Ill.) in 25 cm^2 tissue culture flasks (Corning Glass Works, Corning N.Y.). After 8 to 10 days an adherent fibroblast (feeder) layer, supplying a hemopoietic microenvironment, was established. The non-adherent cells were washed off, and the feeder layer was irradiated with 3.0 Gy gamma-irradiation at a dose rate of 3.3 Gy per min. A second bone marrow sample was obtained from the same donor, and low-density mononuclear cells were isolated as above. The cells were exposed for 60 min at 37° C. to increasing drug concentrations. After two washings, the cells were suspended in 10 ml IMDM with 10% FCS and 5×10^-6 M HyC, and then added to the previously established feeder layers. All cultures were established in duplicate, and all flasks were incubated for five weeks at 37° C. in an atmosphere of 5% CO2 and 12% O2 balanced with N2 to 100%. Twice weekly, 85% of the medium was replaced with fresh medium. Immediately after drug exposure, and at weekly intervals up to 5 weeks, one ml of the cell suspension was removed and monitored for the presence of GM-CFC using the soft agar assay as described above. The total number of surviving GM-CFC formed from untreated cells served as a quality control of the culture system and as a reference (positive controls) for calculating the surviving GM-CFC fraction in cultures of drug-treated cells Flasks containing irradiated stromal cell layers alone were subjected to the same twice-weekly media changes and were monitored weekly for possible regrowth of GM-CFC (negative controls). After five weeks, all non-adherent cells were removed from the flasks. The feeder layers were carefully rinsed twice with 10 ml of PBS, then treated with 0.2% trypsin in EDTA solution (GIBCO Laboratories, Grand Island, N.Y.) for 2-3 min at 37° C. After washing, the resulting single cell suspensions were assayed for GM-CFC.
(§2) ^a Average values ± S.D. for three experiments. In each experiment
(§3) the cultures were conducted in duplicates.
(§4) ^b At the end of the culture period. For details see Materials and […]

[9] = as above; assay type: cell-based, human; settings: human, bone marrow gm-cfc; concentration used in long-term suspension cultures; read-out: detectable GM-CFC abolished
Procedure: as §1, §2, §3, §4

HL-60 = assay: Clonogenic assay, drug in agar, prolonged exposure (Table 8, FIG. 11); assay type: cell-based; settings: Homo sapiens, drug added to agar plates
[10] = Stability in phosphate-buffered saline
[11] = tested on: KBM-3 leukemic CFC and GM-CFC in bone marrow; assay: cells; assay type: cell-based, human
[12] = Stability of frozen stock solution; assay type: physicochemical; settings: frozen at -80° C., stock solution 265 uM
Procedure: In the initial experiments, acetaldoifosphamide (1-C) was weighed and dissolved in Dulbecco's phosphate-buffered saline (pH 7.4) (GIBCO, Grand Island, N.Y.) supplemented with Ca++ (10 mg %) and glucose (100 mg %) (enriched PBS) immediately prior to each experiment. […] In subsequent experiments a frozen stock solution was used; aliquots were thawed as necessary immediately prior to use.

SMILES: O=P1(N(CCCl)CCCl)NCCCO1 (stereo not drawn) [Cyclophosphamide, cyclophosphamide, reference compound]
- IC50 [1]: 20 µg/mL (≈ 76.6 µM)
- therapeutic index, in words [2]: higher therapeutic index than must other mustard-type alkylating agents

SMILES: CC(=O)OC(CCOP(=O)(NCCCl)NCCCl)OC(C)=O [acetaldoifosphamide]
- effect of erythrocytes on activity [3]: decreases the activity
- cytotoxicity relative to 4-HC on a molar basis ([3]; human): 8-10 times
- IC50 (KBM-3/DOX): 160 nM
- IC50 (KBM-3): 200 nM
- IC90 [4]: ~1300 nM
- activity against normal marrow GM-CFC versus leukemic myeloid CFC (KBM-3) [5]: more active against normal marrow GM-CFC than against leukemic myeloid CFC
- dependence of cytotoxicity on cell concentration [5]: a 20-fold increase in cell concentration results in only a two-fold decrease in cytotoxicity
- increase in clonogenic KBM-3 cell survival [5]: 2 fold
- IC50 (KBM-3/AMSA): 680 nM
- GM-CFC doubling time [6]: 6 to 12 h
- GM-CFC recovery kinetics / progenitor sparing, in words [6]: has a sparing effect on very immature hemopoietic stem cells
- delay in proliferation of the GM-CFC pool [6]: 24 h
- detectable GM-CFC after highest concentration [6]: initially had no detectable GM-CFC, however after day two rapid GM-CFC proliferation was apparent
- IC50 [7]: 11500 to 12500 nM
- cytotoxicity at 1 h (in vitro): 95 to 100%
- IC50 (HL-60/AMSA): 560 nM
- GM-CFC × 10^-3 per adherent cell layer ([8]; 26.4 uM): 0.22 ± 0.09 GM-CFC × 10^-3 per adherent ce
- GM-CFC × 10^-3 per culture ([8]; 26.4 uM, week 0): 2.8 ± 1.5 GM-CFC × 10^-3 per culture
- GM-CFC × 10^-3 per culture ([8]; 26.4 uM, week 1): 15.0 ± 1.8 GM-CFC × 10^-3 per culture
- GM-CFC × 10^-3 per culture ([8]; 26.4 uM, week 2): 18.2 ± 4.6 GM-CFC × 10^-3 per culture
- GM-CFC × 10^-3 per culture ([8]; 26.4 uM, week 3): 2.9 ± 1.1 GM-CFC × 10^-3 per culture
- GM-CFC × 10^-3 per culture ([8]; 26.4 uM, week 4): 0.8 ± 0.4 GM-CFC × 10^-3 per culture
- GM-CFC × 10^-3 per culture ([8]; 26.4 uM, week 5): 0.09 ± 0.03 GM-CFC × 10^-3 per culture
- GM-CFC content of adherent cell layer vs controls ([8]; 33 uM, end of five weeks): contained more GM-CFC than the controls
- GM-CFC × 10^-3 per adherent cell layer ([8]; 33.0 uM): 0.12 ± 0.04 GM-CFC × 10^-3 per adherent ce
- GM-CFC × 10^-3 per culture ([8]; 33.0 uM, week 0): 0.1 ± 0.04 GM-CFC × 10^-3 per culture
- GM-CFC × 10^-3 per culture ([8]; 33.0 uM, week 1): 7.7 ± 1.3 GM-CFC × 10^-3 per culture
- GM-CFC × 10^-3 per culture ([8]; 33.0 uM, week 2): 18.6 ± 2.5 GM-CFC × 10^-3 per culture
- GM-CFC × 10^-3 per culture ([8]; 33.0 uM, week 3): 2.6 ± 0.3 GM-CFC × 10^-3 per culture
- GM-CFC × 10^-3 per culture ([8]; 33.0 uM, week 4): 1.1 ± 0.3 GM-CFC × 10^-3 per culture
- GM-CFC × 10^-3 per culture ([8]; 33.0 uM, week 5): 0.13 ± 0.06 GM-CFC × 10^-3 per culture
- GM-CFC content of adherent cell layer vs controls ([8]; 39.6 uM, end of five weeks): had the same GM-CFC content as the controls
- GM-CFC × 10^-3 per adherent cell layer ([8]; 39.6 uM): 0.06 ± 0.03 GM-CFC × 10^-3 per adherent ce
- GM-CFC × 10^-3 per culture ([8]; 39.6 uM, week 0): 0.3 ± 0.2 GM-CFC × 10^-3 per culture
- GM-CFC × 10^-3 per culture ([8]; 39.6 uM, week 1): 16.8 ± 7.6 GM-CFC × 10^-3 per culture
- GM-CFC × 10^-3 per culture ([8]; 39.6 uM, week 2): 18.5 ± 6.5 GM-CFC × 10^-3 per culture
- GM-CFC × 10^-3 per culture ([8]; 39.6 uM, week 3): 3.9 ± 1.3 GM-CFC × 10^-3 per culture
- GM-CFC × 10^-3 per culture ([8]; 39.6 uM, week 4): 0.8 ± 0.3 GM-CFC × 10^-3 per culture
- GM-CFC × 10^-3 per culture ([8]; 39.6 uM, week 5): 0.10 ± 0.02 GM-CFC × 10^-3 per culture
- number of GM-CFC in non-adherent and adherent population ([8]; 53 uM, end of five weeks): subnormal number of GM-CFC
- GM-CFC × 10^-3 per adherent cell layer ([8]; 53.0 uM): 0.03 ± 0.01 GM-CFC × 10^-3 per adherent ce
- GM-CFC × 10^-3 per culture ([8]; 53.0 uM, week 0): 0 GM-CFC × 10^-3 per culture
- GM-CFC × 10^-3 per culture ([8]; 53.0 uM, week 1): 0.2 ± 0.0 GM-CFC × 10^-3 per culture
- GM-CFC × 10^-3 per culture ([8]; 53.0 uM, week 2): 1.2 ± 0.2 GM-CFC × 10^-3 per culture
- GM-CFC × 10^-3 per culture ([8]; 53.0 uM, week 3): 0.3 ± 0.1 GM-CFC × 10^-3 per culture
- GM-CFC × 10^-3 per culture ([8]; 53.0 uM, week 4): 0.06 ± 0.02 GM-CFC × 10^-3 per culture
- GM-CFC × 10^-3 per culture ([8]; 53.0 uM, week 5): 0.006 ± 0.002 GM-CFC × 10^-3 per culture
- IC99 ([8]; Homo sapiens, 1 h, GM-CFC): 33 µM
- IC100 ([8]; Homo sapiens, 1 h, GM-CFC): 53 µM
- time to recovery of GM-CFC to control level ([8]; after bone marrow exposure): ≤ 2 weeks
- GM-CFC recovery to control levels ([8]; normal bone marrow, concentration abolishing more than 99% of GM-CFC): two to three weeks
- cytotoxicity at 1 h [9]: > 99%
- IC50 (HL-60): 300 nM
- half-life ([10]; pbs, pH 7.4): > 80 h
- stability in saline solution ([10]; saline solution): stable in saline solution
- regrowth / elimination of leukemic cells [11]: leukemic cell proliferation was not evident; also recorded: no regrowth of leukemic CFC was observed; also recorded: the leukemia was completely eliminated with full recovery of GM-CFC production
- log reduction at 39.6 µM ([11]; Homo sapiens, 1 h, read-out: reduction of leukemic cells): > 5
- retention of full cytotoxic activity on storage [12]: retained full cytotoxic activity for more than four months

Reference: US5055459A, “Selective elimination of malignant cells from bone marrow by bis (acyloxy) propylphosphoramidates” (Board of Regents, The University of Texas, priority 1989, dated 1991)
